Laboratory results taken from patent publication US9586936B2, “Heteroarylamine derivatives as protein kinase inhibitors” (KOREA INSTITUTE OF SCIENCE AND TECHNOLOGY, priority 2014, dated 2017).
Read-outs that look alike come from different tables or passages of the source.

Tests used:
microsomal stability [1] = assay type: in vitro ADME, Rat; settings: for microsomal stability (% at time): Rat
Procedure: (§1) The microsomal stability of N-(2,6-dichloro-3,5-dimethoxyphenyl)-1-(6-((4-(4-ethylpiperazin-1-yl)phenyl)amino)pyrimidin-4-yl)-1H-benz[d]imidazol-2-amine synthesized in Example 1, as a representative compound of the present invention, was evaluated.

[2] = in-vivo PK profile, rat PK; settings: Sprague-Dawley rat; for MRT inf: read-out: MRT(0-∞)
Excerpt: The in-vivo PK profile (mouse PK/ICR mice and rat PK/Sprague-Dawley rat) of N-(2,6-dichloro-3,5-dimethoxyphenyl)-1-(6-((4-(4-ethylpiperazin-1-yl)phenyl)amino)pyrimidin-4-yl)-1H-benz[d]imidazol-2-amine synthesized in Example 1 is as follows.

microsomal stability [3] = assay type: in vitro ADME, Dog; settings: for microsomal stability (% at time): Dog
Procedure: as §1

[4] = tested on: bladder cancer cell line RT112; assay: inhibition of proliferation of cancer cells; assay type: cell-based; settings: Homo sapiens, RT-112, read-out: Ability of inhibiting proliferation of RT112 (GI50)
Procedure: The ability of the compound of the present invention of inhibiting the proliferation of the bladder cancer cell line RT112 was determined as the GI50 value.

CYP2D6 = CYP2D6 (Homo sapiens, UniProt P10635); assay: inhibition activity against CYPs (cytochromes P450); assay type: in vitro ADME
CYP2D6, sequence (P10635 whole entry): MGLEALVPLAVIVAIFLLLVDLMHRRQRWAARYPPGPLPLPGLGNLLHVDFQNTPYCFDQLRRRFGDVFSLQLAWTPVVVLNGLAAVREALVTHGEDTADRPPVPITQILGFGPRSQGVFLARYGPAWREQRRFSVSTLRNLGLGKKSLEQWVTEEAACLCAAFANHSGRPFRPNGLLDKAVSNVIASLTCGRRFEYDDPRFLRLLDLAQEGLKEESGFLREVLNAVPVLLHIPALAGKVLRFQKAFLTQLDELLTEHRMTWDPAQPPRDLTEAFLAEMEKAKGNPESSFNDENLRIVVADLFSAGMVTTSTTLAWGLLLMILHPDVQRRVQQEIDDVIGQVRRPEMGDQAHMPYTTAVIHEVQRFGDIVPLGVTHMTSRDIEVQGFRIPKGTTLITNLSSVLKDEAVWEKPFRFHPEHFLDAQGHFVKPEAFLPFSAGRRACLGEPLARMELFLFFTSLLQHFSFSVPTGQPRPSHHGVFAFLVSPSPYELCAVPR
Procedure: (§2) The inhibition activity (inhibition rate, %) of N-(2,6-dichloro-3,5-dimethoxyphenyl)-1-(6-((4-(4-ethylpiperazin-1-yl)phenyl)amino)pyrimidin-4-yl)-1H-benz[d]imidazol-2-amine synthesized in Example 1, as a representative compound of the present invention, against CYPs (cytochromes P450) was measured in order to investigate the risk of drug side effects.

CYP1A2 = biological target: T1, CYP1A2 (Homo sapiens, UniProt P05177); assay: as above; assay type: in vitro ADME
T1 sequence (P05177 1-516): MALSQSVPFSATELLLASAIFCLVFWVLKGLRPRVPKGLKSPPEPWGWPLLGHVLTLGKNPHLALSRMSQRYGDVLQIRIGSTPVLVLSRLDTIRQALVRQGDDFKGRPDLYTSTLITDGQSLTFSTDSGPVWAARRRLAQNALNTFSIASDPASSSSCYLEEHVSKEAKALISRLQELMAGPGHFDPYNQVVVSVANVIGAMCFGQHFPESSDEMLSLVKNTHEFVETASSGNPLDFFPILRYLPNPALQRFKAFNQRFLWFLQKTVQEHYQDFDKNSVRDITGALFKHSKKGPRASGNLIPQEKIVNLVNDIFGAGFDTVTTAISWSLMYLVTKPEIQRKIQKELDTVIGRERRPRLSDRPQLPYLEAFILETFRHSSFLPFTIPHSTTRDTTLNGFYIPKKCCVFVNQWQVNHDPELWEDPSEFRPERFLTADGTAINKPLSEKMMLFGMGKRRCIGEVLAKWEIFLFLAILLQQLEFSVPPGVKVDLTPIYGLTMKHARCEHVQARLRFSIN
Procedure: as §2

CYP2C9 = CYP2C9 (Homo sapiens, UniProt P11712); assay: as above; assay type: in vitro ADME
CYP2C9, sequence (P11712 whole entry): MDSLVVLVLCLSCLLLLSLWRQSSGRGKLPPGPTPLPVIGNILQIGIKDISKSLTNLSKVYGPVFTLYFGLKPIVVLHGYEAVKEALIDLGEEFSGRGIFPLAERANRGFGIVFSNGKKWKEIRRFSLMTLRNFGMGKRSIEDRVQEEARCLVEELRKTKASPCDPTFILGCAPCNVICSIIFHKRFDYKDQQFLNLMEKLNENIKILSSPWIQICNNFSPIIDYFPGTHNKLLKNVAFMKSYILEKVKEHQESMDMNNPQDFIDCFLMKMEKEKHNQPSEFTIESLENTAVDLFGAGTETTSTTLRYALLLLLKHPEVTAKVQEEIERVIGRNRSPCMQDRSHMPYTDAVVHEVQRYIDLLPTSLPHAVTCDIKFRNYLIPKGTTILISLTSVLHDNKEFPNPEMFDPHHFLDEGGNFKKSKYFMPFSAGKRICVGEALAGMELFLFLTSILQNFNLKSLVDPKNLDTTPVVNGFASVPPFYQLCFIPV
Procedure: as §2

CYP2C19 = CYP2C19 (Homo sapiens, UniProt P33261); assay: as above; assay type: in vitro ADME
CYP2C19, sequence (P33261 whole entry): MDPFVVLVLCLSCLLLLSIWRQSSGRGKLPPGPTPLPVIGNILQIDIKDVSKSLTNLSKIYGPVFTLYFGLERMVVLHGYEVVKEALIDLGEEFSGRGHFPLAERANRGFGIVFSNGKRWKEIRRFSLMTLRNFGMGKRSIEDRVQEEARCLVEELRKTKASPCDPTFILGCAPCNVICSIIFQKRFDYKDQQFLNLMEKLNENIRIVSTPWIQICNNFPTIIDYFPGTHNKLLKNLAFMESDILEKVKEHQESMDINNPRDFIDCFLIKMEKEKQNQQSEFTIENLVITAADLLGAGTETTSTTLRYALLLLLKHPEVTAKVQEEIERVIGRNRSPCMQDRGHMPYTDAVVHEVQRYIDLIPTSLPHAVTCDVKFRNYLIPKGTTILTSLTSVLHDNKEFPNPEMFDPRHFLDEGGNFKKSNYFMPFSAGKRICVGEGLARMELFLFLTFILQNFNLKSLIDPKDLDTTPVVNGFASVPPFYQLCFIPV
Procedure: as §2

CYP3A4 = CYP3A4 (Homo sapiens, UniProt P08684); assay: as above; assay type: in vitro ADME
CYP3A4, sequence (P08684 whole entry): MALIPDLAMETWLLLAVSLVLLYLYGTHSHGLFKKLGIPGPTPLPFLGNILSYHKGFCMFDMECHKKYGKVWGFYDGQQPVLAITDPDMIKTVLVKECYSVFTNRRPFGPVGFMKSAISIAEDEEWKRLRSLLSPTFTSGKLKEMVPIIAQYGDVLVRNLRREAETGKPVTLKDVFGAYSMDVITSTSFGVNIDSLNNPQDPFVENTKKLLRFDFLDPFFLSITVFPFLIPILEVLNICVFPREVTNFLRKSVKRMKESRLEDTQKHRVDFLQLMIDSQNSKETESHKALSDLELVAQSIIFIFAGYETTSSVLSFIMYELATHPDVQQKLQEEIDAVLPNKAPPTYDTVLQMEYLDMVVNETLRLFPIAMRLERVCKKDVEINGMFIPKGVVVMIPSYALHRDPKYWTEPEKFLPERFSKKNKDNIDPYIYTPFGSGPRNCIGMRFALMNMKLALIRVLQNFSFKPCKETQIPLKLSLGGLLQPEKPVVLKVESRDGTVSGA
Procedure: as §2

microsomal stability [5] = assay type: in vitro ADME, Mouse; settings: for microsomal stability (% at time) / microsomal stability (% at time), Negative control (excluding NADPH): Mouse
Procedure: as §1

[6] = from 0.1-50 μM, unit from the table's concentration head, read-out: Expected IC50

Structure (SMILES): CCN1CCN(c2ccc(Nc3cc(-n4c(Nc5c(Cl)c(OC)cc(OC)c5Cl)nc5ccccc54)ncn3)cc2)CC1 [Example 1, N-(2,6-dichloro-3,5-dimethoxyphenyl)-1-(6-((4-(4-ethylpiperazin-1-yl)phenyl)amino)pyrimidin-4-yl)-1H-benz[d]imidazol-2-amine]
- microsomal stability (% at time) (microsomal stability [1]; 0 min): 100.00%
- microsomal stability (% at time) (microsomal stability [1]; 5 min): 95.53%
- microsomal stability (% at time) (microsomal stability [1]; 10 min): 88.45%
- microsomal stability (% at time) (microsomal stability [1]; 15 min): 82.61%
- microsomal stability (% at time) (microsomal stability [1]; 30 min): 65.16%
- microsomal stability (% at time) (microsomal stability [1]; 45 min): 45.27%
- microsomal stability (% at time) (microsomal stability [1]; 60 min): 44.31%
- half-life (microsomal stability [1]; microsomes, Rat microsomal stability): 0.659 h
- F* ([2]; PO 5 mg/kg): 13.46%
- AUC(0-inf) ([2]; in vivo, IV 5 mg/kg): 884 ng·h/mL
- AUC(0-t) ([2]; in vivo, IV 5 mg/kg): 844 ng·h/mL
- Cmax ([2]; in vivo, IV 5 mg/kg): 271 ng/mL
- Tmax ([2]; in vivo, IV 5 mg/kg): 0.083 h
- clearance ([2]; in vivo, IV 5 mg/kg): 97.3 mL/min/kg
- half-life ([2]; in vivo, IV 5 mg/kg): 5.75 h
- MRT inf ([2]; in vivo, IV 5 mg/kg): 6.37 h
- Vd ([2]; in vivo, IV 5 mg/kg, read-out: Vz): 48 L/kg
- AUC(0-inf) ([2]; in vivo, PO 5 mg/kg): 652 ng·h/mL
- AUC(0-t) ([2]; in vivo, PO 5 mg/kg): 129 ng·h/mL
- Cmax ([2]; in vivo, PO 5 mg/kg): 11.6 ng/mL
- Tmax ([2]; in vivo, PO 5 mg/kg): 5.33 h
- half-life ([2]; in vivo, PO 5 mg/kg): 9.14 h
- MRT inf ([2]; in vivo, PO 5 mg/kg): 12.6 h
- microsomal stability (% at time) (microsomal stability [3]; 0 min): 100.00%
- microsomal stability (% at time) (microsomal stability [3]; 5 min): 77.02%
- microsomal stability (% at time) (microsomal stability [3]; 10 min): 57.41%
- microsomal stability (% at time) (microsomal stability [3]; 15 min): 44.70%
- microsomal stability (% at time) (microsomal stability [3]; 30 min): 21.03%
- microsomal stability (% at time) (microsomal stability [3]; 45 min): 8.23%
- microsomal stability (% at time) (microsomal stability [3]; 60 min): 5.02%
- half-life (microsomal stability [3]; microsomes, Dog microsomal stability): 0.225 h
- GI50 [4]: < 1 µM
- inhibition at 10 µM (CYP2D6; concentration 10 μM): 6.12%
- IC50 (CYP2D6; [6]): > 50 µM
- inhibition at 0.1 µM (CYP2D6; human, concentration 0.1 μM): -3.15%
- inhibition at 0.5 µM (CYP2D6; human, concentration 0.5 μM): -4.76%
- inhibition at 5 µM (CYP2D6; human, concentration 5 μM): -2.56%
- inhibition at 25 µM (CYP2D6; human, concentration 25 μM): 13.6%
- inhibition at 50 µM (CYP2D6; human, concentration 50 μM): 13.4%
- inhibition activity against CYP, statement in words (CYP2D6; summary of Table 5): no inhibition activity
- IC50 (CYP1A2; [6]): > 50 µM
- inhibition at 0.1 µM (CYP1A2; human, concentration 0.1 μM): 5.36%
- inhibition at 0.5 µM (CYP1A2; human, concentration 0.5 μM): 4.67%
- inhibition at 5 µM (CYP1A2; human, concentration 5 μM): -1.9%
- inhibition at 10 µM (CYP1A2; human, concentration 10 μM): -3.46%
- inhibition at 25 µM (CYP1A2; human, concentration 25 μM): -3.11%
- inhibition at 50 µM (CYP1A2; human, concentration 50 μM): 2.08%
- inhibition activity against CYP, statement in words (CYP1A2; summary of Table 5): no inhibition activity
- IC50 (CYP2C9; [6]): 44.8 µM
- inhibition at 0.1 µM (CYP2C9; human, concentration 0.1 μM): 10.3%
- inhibition at 0.5 µM (CYP2C9; human, concentration 0.5 μM): 8.79%
- inhibition at 5 µM (CYP2C9; human, concentration 5 μM): 24.6%
- inhibition at 10 µM (CYP2C9; human, concentration 10 μM): 30%
- inhibition at 25 µM (CYP2C9; human, concentration 25 μM): 52.4%
- inhibition at 50 µM (CYP2C9; human, concentration 50 μM): 53.4%
- inhibition activity against CYP, statement in words (CYP2C9; summary of Table 5): no inhibition activity
- inhibition at 10 µM (CYP2C19; concentration 10 μM): 37.3%
- IC50 (CYP2C19; [6]): 16.6 µM
- inhibition at 0.1 µM (CYP2C19; human, concentration 0.1 μM): 2.72%
- inhibition at 0.5 µM (CYP2C19; human, concentration 0.5 μM): 3.23%
- inhibition at 5 µM (CYP2C19; human, concentration 5 μM): 30%
- inhibition at 25 µM (CYP2C19; human, concentration 25 μM): 66.1%
- inhibition at 50 µM (CYP2C19; human, concentration 50 μM): 68%
- inhibition activity against CYP, statement in words (CYP2C19; summary of Table 5): no inhibition activity
- inhibition at 10 µM (CYP3A4; concentration 10 μM): 31.8%
- IC50 (CYP3A4; [6]): 32.4 µM
- inhibition at 0.1 µM (CYP3A4; human, concentration 0.1 μM): 3.09%
- inhibition at 0.5 µM (CYP3A4; human, concentration 0.5 μM): 3.7%
- inhibition at 5 µM (CYP3A4; human, concentration 5 μM): 24.4%
- inhibition at 25 µM (CYP3A4; human, concentration 25 μM): 49.7%
- inhibition at 50 µM (CYP3A4; human, concentration 50 μM): 55.5%
- inhibition activity against CYP, statement in words (CYP3A4; summary of Table 5): no inhibition activity
- microsomal stability (% at time) (microsomal stability [5]; 0 min): 100.00%
- microsomal stability (% at time), Negative control (excluding NADPH) (microsomal stability [5]; 0 min): 100.00%
- microsomal stability (% at time) (microsomal stability [5]; 5 min): 62.73%
- microsomal stability (% at time), Negative control (excluding NADPH) (microsomal stability [5]; 5 min): 103.56%
- microsomal stability (% at time) (microsomal stability [5]; 10 min): 40.77%
- microsomal stability (% at time), Negative control (excluding NADPH) (microsomal stability [5]; 10 min): 103.56%
- microsomal stability (% at time) (microsomal stability [5]; 15 min): 29.27%
- microsomal stability (% at time), Negative control (excluding NADPH) (microsomal stability [5]; 15 min): 102.67%
- microsomal stability (% at time) (microsomal stability [5]; 30 min): 11.88%
- microsomal stability (% at time), Negative control (excluding NADPH) (microsomal stability [5]; 30 min): 106.67%
- microsomal stability (% at time) (microsomal stability [5]; 45 min): 3.87%
- microsomal stability (% at time), Negative control (excluding NADPH) (microsomal stability [5]; 45 min): 106.67%
- microsomal stability (% at time) (microsomal stability [5]; 60 min): 3.64%
- microsomal stability (% at time), Negative control (excluding NADPH) (microsomal stability [5]; 60 min): 104.44%
- half-life (microsomal stability [5]; microsomes, Mouse microsomal stability): 9.93 min
